# In patent publication US20020026053A1, “Novel 3-(substituted) -2- indolinones compounds and use thereof as inhibitors of protein kinase activity” (priority 1997, published 2002):
# Molecular target: T1, EGFR (Homo sapiens, UniProt P00533)
# T1 construct: endogenous in cells; host or cells: A431 cells (lysate, captured with SUMO1 anti-EGFR antibody)
# Assay: Biochemical EGFR Assay
# Design: concentration or dose not given beside the values
# Settings: protocol P.167
# Summary of the method: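 Readout is ABTS absorbance at 410 nm after anti-phosphotyrosine and HRP-antibody detection of EGFR autophosphorylation. The kinase was immunocaptured from A431 lysate, exposed 30 min to test compound diluted 1:10 in TBS, then phosphorylated for 5 min with ATP/MnCl2 before an EDTA stop.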
# T1 sequence (P00533 25-1210): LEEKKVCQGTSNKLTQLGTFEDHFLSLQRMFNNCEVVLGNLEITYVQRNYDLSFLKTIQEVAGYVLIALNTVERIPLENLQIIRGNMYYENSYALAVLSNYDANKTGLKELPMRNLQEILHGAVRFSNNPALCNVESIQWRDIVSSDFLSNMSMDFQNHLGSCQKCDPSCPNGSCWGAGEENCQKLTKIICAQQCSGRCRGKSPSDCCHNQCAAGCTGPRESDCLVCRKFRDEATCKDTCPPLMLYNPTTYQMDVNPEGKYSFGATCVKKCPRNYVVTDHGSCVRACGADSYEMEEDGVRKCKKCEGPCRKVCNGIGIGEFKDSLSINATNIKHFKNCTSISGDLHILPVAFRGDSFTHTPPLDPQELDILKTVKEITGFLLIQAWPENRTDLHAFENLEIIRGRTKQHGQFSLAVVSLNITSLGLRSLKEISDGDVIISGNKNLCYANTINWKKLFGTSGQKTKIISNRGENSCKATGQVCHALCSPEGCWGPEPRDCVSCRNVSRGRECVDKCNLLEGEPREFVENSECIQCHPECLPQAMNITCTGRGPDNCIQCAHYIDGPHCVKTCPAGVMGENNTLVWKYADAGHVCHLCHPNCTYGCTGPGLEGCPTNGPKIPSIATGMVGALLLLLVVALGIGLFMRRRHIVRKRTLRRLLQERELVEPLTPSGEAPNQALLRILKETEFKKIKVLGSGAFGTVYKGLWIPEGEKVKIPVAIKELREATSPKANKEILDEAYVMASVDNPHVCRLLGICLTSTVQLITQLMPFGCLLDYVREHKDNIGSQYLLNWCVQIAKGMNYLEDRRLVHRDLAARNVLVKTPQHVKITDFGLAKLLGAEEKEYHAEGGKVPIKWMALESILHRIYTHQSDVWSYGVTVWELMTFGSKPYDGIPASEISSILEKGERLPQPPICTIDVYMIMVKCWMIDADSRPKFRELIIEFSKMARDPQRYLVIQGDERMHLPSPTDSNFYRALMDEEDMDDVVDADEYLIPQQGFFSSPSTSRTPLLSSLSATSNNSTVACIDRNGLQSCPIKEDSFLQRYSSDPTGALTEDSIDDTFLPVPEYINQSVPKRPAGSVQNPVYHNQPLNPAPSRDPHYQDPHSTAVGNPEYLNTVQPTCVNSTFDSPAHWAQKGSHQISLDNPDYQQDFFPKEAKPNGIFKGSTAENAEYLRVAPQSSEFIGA
row,SMILES,Biochem EGFR % Inhibition (P.167) [%]
1,Cc1c(Br)cc(Br)c2c1C(=Cc1cc(O)cc(O)c1)C(=O)N2 [10738/H07],−13.4
2,Cc1c(Br)cc(Br)c2c1C(=Cc1ccc(Cl)c(Cl)c1)C(=O)N2 [10738/H08],−12.1
3,COc1ccccc1C=C1C(=O)Nc2c(Br)cc(Br)c(C)c21 [10738/H09],1.6
4,Cc1c(Br)cc(Br)c2c1C(=Cc1ccc(C(C)C)cc1)C(=O)N2 [10738/H10],11.4
5,CCCOc1ccc(C=C2C(=O)Nc3c(Br)cc(Br)c(C)c32)cc1 [10738/H11],−13.4
6,COc1ccc(C=C2C(=O)Nc3c(Br)cc(Br)cc32)cc1C [10739/A02],0.0
7,O=C1Nc2c(Br)cc(Br)cc2C1=Cc1cccc(OCc2ccccc2)c1 [10739/A03],5.1
8,O=C1Nc2c(Br)cc(Br)cc2C1=Cc1ccc(OCc2ccccc2)cc1 [10739/A04],−6.3
9,O=C1Nc2c(Br)cc(Br)cc2C1=CC1COc2ccccc2O1 (stereo not shown) [10739/A05],10.7
10,O=C1Nc2c(Br)cc(Br)cc2C1=Cc1ccc(O)cc1Cl [10739/A06],−5.5
11,O=C1Nc2c(Br)cc(Br)cc2C1=Cc1cc(O)c(O)c(O)c1 [10739/A07],65.6
12,COc1ccc(Oc2cccc(C=C3C(=O)Nc4c(Br)cc(Br)cc43)c2)cc1 [10739/A08],6.2
13,CN(C)CCCOc1ccc(C=C2C(=O)Nc3c(Br)cc(Br)cc32)cc1 [10739/A09],26.9
14,O=C1Nc2c(Br)cc(Br)cc2C1=Cc1ccoc1 [10739/A10],20.7
15,O=C1Nc2c(Br)cc(Br)cc2C1=Cc1ccc(CO)o1 [10739/A11],−8.7
16,COc1ccc(C=C2C(=O)Nc3ccc(I)cc32)cc1C [10739/B02],18.1
17,O=C1Nc2ccc(I)cc2C1=Cc1cccc(OCc2ccccc2)c1 [10739/B03],9.6
18,O=C1Nc2ccc(I)cc2C1=Cc1ccc(OCc2ccccc2)cc1 [10739/B04],17.5
19,O=C1Nc2ccc(I)cc2C1=CC1COc2ccccc2O1 (stereo not shown) [10739/B05],32.0
20,O=C1Nc2ccc(I)cc2C1=Cc1ccc(O)cc1Cl [10739/B06],9.2
21,O=C1Nc2ccc(I)cc2C1=Cc1cc(O)c(O)c(O)c1 [10739/B07],59.4
22,COc1ccc(Oc2cccc(C=C3C(=O)Nc4ccc(I)cc43)c2)cc1 [10739/B08],19.8
23,CN(C)CCCOc1ccc(C=C2C(=O)Nc3ccc(I)cc32)cc1 [10739/B09],11.9
24,O=C1Nc2ccc(I)cc2C1=Cc1ccoc1 [10739/B10],−2.1
25,O=C1Nc2ccc(I)cc2C1=Cc1ccc(CO)o1 [10739/B11],−4.2
26,COc1ccc(C=C2C(=O)Nc3ccc(Br)c(C)c32)cc1C [10739/C02],−1.7

row,SMILES,Biochem EGFR % Inhibition (P.167) [%]
1,Cc1c(Br)ccc2c1C(=Cc1cccc(OCc3ccccc3)c1)C(=O)N2 [10739/C03],18.3
2,Cc1c(Br)ccc2c1C(=Cc1ccc(OCc3ccccc3)cc1)C(=O)N2 [10739/C04],1.5
3,Cc1c(Br)ccc2c1C(=CC1COc3ccccc3O1)C(=O)N2 (stereo not shown) [10739/C05],−1.7
4,Cc1c(Br)ccc2c1C(=Cc1ccc(O)cc1Cl)C(=O)N2 [10739/C06],−17.0
5,Cc1c(Br)ccc2c1C(=Cc1cc(O)c(O)c(O)c1)C(=O)N2 [10739/C07],34.7
6,COc1ccc(Oc2cccc(C=C3C(=O)Nc4ccc(Br)c(C)c43)c2)cc1 [10739/C08],−1.7
7,Cc1c(Br)ccc2c1C(=Cc1ccc(OCCCN(C)C)cc1)C(=O)N2 [10739/C09],−2.7
8,Cc1c(Br)ccc2c1C(=Cc1ccoc1)C(=O)N2 [10739/C10],−7.0
9,Cc1c(Br)ccc2c1C(=Cc1ccc(CO)o1)C(=O)N2 [10739/C11],−17.0
10,CNS(=O)(=O)c1ccc2c(c1)C(=Cc1ccc(OC)c(C)c1)C(=O)N2 [10739/D02],2.6
11,CNS(=O)(=O)c1ccc2c(c1)C(=Cc1cccc(OCc3ccccc3)c1)C(=O)N2 [10739/D03],24.7
12,CNS(=O)(=O)c1ccc2c(c1)C(=Cc1ccc(OCc3ccccc3)cc1)C(=O)N2 [10739/D04],−6.4
13,CNS(=O)(=O)c1ccc2c(c1)C(=CC1COc3ccccc3O1)C(=O)N2 (stereo not shown) [10739/D05],−10.6
14,CNS(=O)(=O)c1ccc2c(c1)C(=Cc1ccc(O)cc1Cl)C(=O)N2 [10739/D06],−19.8
15,CNS(=O)(=O)c1ccc2c(c1)C(=Cc1cc(O)c(O)c(O)c1)C(=O)N2 [10739/D07],21.1
16,CNS(=O)(=O)c1ccc2c(c1)C(=Cc1cccc(Oc3ccc(OC)cc3)c1)C(=O)N2 [10739/D08],−16.8
17,CNS(=O)(=O)c1ccc2c(c1)C(=Cc1ccc(OCCCN(C)C)cc1)C(=O)N2 [10739/D09],−15.1
18,COc1ccc(C=C2C(=O)Nc3ccc(S(=O)(=O)Nc4ccc(C(F)(F)F)cc4)cc32)cc1C [10739/E02],−8.3
19,O=C1Nc2ccc(S(=O)(=O)Nc3ccc(C(F)(F)F)cc3)cc2C1=Cc1cccc(OCc2ccccc2)c1 [10739/E03],4.9
20,O=C1Nc2ccc(S(=O)(=O)Nc3ccc(C(F)(F)F)cc3)cc2C1=Cc1ccc(OCc2ccccc2)cc1 [10739/E04],−35.5
21,O=C1Nc2ccc(S(=O)(=O)Nc3ccc(C(F)(F)F)cc3)cc2C1=CC1COc2ccccc2O1 (stereo not shown) [10739/E05],−11.3
22,O=C1Nc2ccc(S(=O)(=O)Nc3ccc(C(F)(F)F)cc3)cc2C1=Cc1ccc(O)cc1Cl [10739/E06],33.5
23,O=C1Nc2ccc(S(=O)(=O)Nc3ccc(C(F)(F)F)cc3)cc2C1=Cc1cc(O)c(O)c(O)c1 [10739/E07],79.6
24,COc1ccc(Oc2cccc(C=C3C(=O)Nc4ccc(S(=O)(=O)Nc5ccc(C(F)(F)F)cc5)cc43)c2)cc1 [10739/E08],−17.4
25,CN(C)CCCOc1ccc(C=C2C(=O)Nc3ccc(S(=O)(=O)Nc4ccc(C(F)(F)F)cc4)cc32)cc1 [10739/E09],15.2
26,O=C1Nc2ccc(S(=O)(=O)Nc3ccc(C(F)(F)F)cc3)cc2C1=Cc1ccoc1 [10739/E10],17.5
